{
  "source": "patent US20030095979A1",
  "about": "“Pharmaceutical preparations comprising modified peptides” (Cistem Biotechnologies GMBH, priority 2001, published 2003)",
  "design_in_all_cases": "species or system mice (C57BL/6)",
  "key": {"[1]": {"system": "SIINFEKL-specific IFN-γ-producing T cells", "test": "Example 3: mice vaccinated subcutaneously in the hind footpads, spleen cells restimulated ex vivo, IFN-γ ELISpot assay", "settings": "in combination with 100 μg poly-L-arginine; 100 μg peptide s.c. hind footpads; spleen 7 days after vaccination", "description": "Groups of 4 mice (C57BL/6, female, 8 weeks of age, H-2^b) were injected subcutaneously into the hind footpads as follows (dose 100 μg of peptide, molarity adapted; +100 μg poly-L-arginine per mouse):\nGroups of 4 mice were vaccinated subcutaneously in the hind footpads as indicated. 7 days after the vaccination single cell suspensions of spleens were prepared and cells were restimulated ex vivo to detect IFN-γ-producing cells via ELISpot assay."}, "[2]": {"system": "SIINFEKL specific IFN-γ-producing T cells", "test": "Example 1: mice vaccinated subcutaneously in the flank 3 times, splenocytes activated ex vivo with SIINFEKL, IFN-γ ELISpot assay", "settings": "for peptide specific T cells induced: without adding poly-L-arginine, 100 μg peptide s.c. flank days 0, 21, 28, spleen one week after third vaccination", "description": "Groups of 4 mice (C75BL/6, femal, 8 weeks of age, H-2^b were injected subcutaneoulsy in the flank 3 times (days 0, 21 and 28) as follows (dose 100 μg of peptide, molarity adapted; +/−100 μg poly-L-arginine per mouse):\nOne week after the third vaccination spleens were removed and the splenocytes were activated ex vivo with peptide SIINFEKL (“245”) to determine IFN-y-producing specific cells (ELISpot assay)."}, "[3]": {"system": "specific IFN-γ-producing T cells", "test": "Example 2: mice vaccinated subcutaneously in the footpad 3 times, lymph node cells and splenocytes activated ex vivo with SIINFEKL, IFN-γ ELISpot assay", "settings": "in combination with 100 μg poly-L-arginine; 100 μg peptide s.c. footpad days 0, 14, 28; one week after 3rd vaccination", "description": "Groups of 4 mice (C57BL/6, female, 6 weeks of age, II-2^b) were injected subcutaneously in the footpad 3 times (days 0, 14, 28) as follows (dose 100 ug of peptide, molarity adapted; +100 μg poly-L-arginine per mouse):\nGroups of 4 mice were vaccinated subcutaneously in the footpad 3 times as indicated. One week after the 3rd vaccination, popliteal lymph nodes and spleens were removed and lymph node cells and splenocytes were activated ex vivo with peptide SIINFEKL (“245”) to determine IFN-y-producing specific cells (ELISpot assay)."}},
  "data": [
    {"sequence": "SIINFEKLFIFI [SIINFEKL with FIFI added at the C-terminus]", "values": [
      {"measurement": "induction of SIINFEKL-specific IFN-γ-producing T cells", "setting": "[1]", "value": "high numbers"}
    ]},
    {"sequence": "FIFISIINFEKL [SIINFEKL with FIFI added at the N-terminus]", "values": [
      {"measurement": "peptide specific T cells induced", "setting": "[2]", "value": "about 100 per 1 million spleen cells"},
      {"measurement": "induction of SIINFEKL-specific IFN-γ-producing T cells", "setting": "[1]", "value": "high numbers"}
    ]},
    {"sequence": "FIFIFISIINFEKL [SIINFEKL with FIFIFI added at the N-terminus]", "values": [
      {"measurement": "peptide specific T cells induced", "setting": "[2]", "value": "about 100 per 1 million spleen cells"}
    ]},
    {"sequence": "SIINFEKL [ovalbumin derived class I H-2Kb restricted peptide, unmodified wild type, reference compound]", "values": [
      {"measurement": "induction of T cells (general statement)", "setting": "[2]; alone or in combination with an adjuvant like poly-L-arginine", "value": "weak inducer of T cells"}
    ]},
    {"sequence": "EDEDSIINFEKL [SIINFEKL with EDED added at the N-terminus]", "values": [
      {"measurement": "induction of specific IFN-γ-producing T cells in the draining (popliteal) lymph node (local response)", "setting": "[3]", "value": "high amount"},
      {"measurement": "induction of specific IFN-γ-producing T cells in the spleen (systemic response)", "setting": "[3]", "value": "high amount"}
    ]}
  ]
}
